This passage reports IC50 results from US20250154138A1, “Small Molecule IL-17A Modulators” (BeiGene, Ltd., priority 2022, published 2025).

Assay [1] deals with IL-17-induced GROα secretion from HT-29 cells. Kind of assay: GROα release assay in human colorectal adenocarcinoma epithelial cell (HT-29, ELISA). The format is cell-based. The conditions noted are these: Homo sapiens, HT-29, 48 h, 10 ng/mL IL-17A, highest concentration 10 μM, read-out: Cellular assay HT29 cell/CXCL1 IC50. How it is done:
The purpose of the assay is to test the ability of a compound to neutralize IL17A proteins. IL17 can stimulate human epithelial cells to secrete GROα. The ability of one compound of the invention to neutralize IL-17-induced GROα secretion from the human colorectal adenocarcinoma epithelia cell line HT-29 is tested in this assay.
HT-29 cells (human colorectal adenocarcinoma epithelia cell, ATCC) were stimulated with IL-17A (Novoprotein, #C774) in final concentration of 10 ng/mL. The resultant GROα response was measured using an ELISA kit from Invitrogen (#88-52122). HT-29 cells were cultured in complete medium (McCoy's 5A medium+10% FBS) and maintained in a tissue culture flask using standard techniques. On day 1, detached the cell by using TrypLE (Gibco, #12605036) and used the complete medium to neutralize. The cells were centrifuged at 11,00 rmp for 4 minutes. Re-suspended the cell pellet in complete medium and seeded 50,000 HT-29 cells into the 96-well assay plate (Corning, 3599) at 135 μL complete medium per well. The cells were incubated for overnight, at 37° C./5% CO2 to adherent the plate. On day 2, prepared a 4-fold serial dilution of the tested compound in DMSO. The highest concentration of the compound was 10 μM. Transferred 2 μL of the serial diluted compound from the serial dilution plate into the reagent plate which was contained 198 μL complete medium with 100 ng/mL IL-17A per well. The compounds were incubated with the IL-17A for 15 minutes. 15 μL mixtures from reagent plate were transferred into the cell assay plate. Incubated the plate at 37° C./5% CO2 for 48 hours. After the incubation, on day 4, GROα level were measured with GROα ELISA as the manufacturer's instructions. 50 μL supernatant was collected form the assay plate to ELISA plate. ELISA plate was read at 450 nm on a microplate reader and compared to a standard calibration curve.
Data were processed using GraphPad Prism. GROα concentration was calculated from the standard curve. IC50 was determined using the equation log concentration (inhibitor) against response and fitted to four parameters.
For orientation: In an ELISA, binding on a coated surface is turned into a signal by an enzyme label.

In assay [2] the target is human IL-17A / human IL-17RA (Homo sapiens (Human), UniProt Q16552). Nature of the assay: Human IL-17A biochemical assay (HTRF, blocking of IL-17A binding to IL-17RA). The conditions noted are these: 0.4 nM IL-17A, 0.3 nM IL-17RA, max compound concentration 10 uM. The procedure, abridged:
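Recombinant human IL-17A (0.4 nM) was pre-incubated with compound (top 10 uM, 2.7-fold, 10 points) for 3 h at room temperature in 20 mM HEPES pH 7.5, 50 mM NaCl, 0.1% BSA, 0.2 mM DTT, 0.005% Tween 20. IL-17RA (0.3 nM) was then added for 1 h, followed by anti-6His Tb and anti-human IgG-XL665 detection for 1 h; IC50 from four-parameter fit.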

Structures are written as SMILES.

human IL-17A / human IL-17RA, sequence (Q16552 24-155): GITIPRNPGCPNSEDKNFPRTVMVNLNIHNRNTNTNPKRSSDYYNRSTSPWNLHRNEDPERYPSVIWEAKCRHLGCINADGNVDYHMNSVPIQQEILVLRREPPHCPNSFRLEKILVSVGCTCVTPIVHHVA

On to `CC(C)[C@@H]1CN(C2(C(=O)N[C@H](CO)C3CCCCC3)Cc3ccc(NC(=O)[C@@H](NC(=O)c4ccnn4C)C4CCCCC4)cc3C2)C(=O)N1` (stereo partly drawn) [Example 121, N-((1S)-1-cyclohexyl-2-((2-(((S)-1-cyclohexyl-2-hydroxyethyl)carbamoyl)-2-((R)-4-isopropyl-2-oxoimidazolidin-1-yl)-2,3-dihydro-1H-inden-5-yl)amino)-2-oxoethyl)-1-methyl-1H-pyrazole-5-carboxamide], for which the IC50 was determined as 32.3 nM in assay [1] and 16 nM in assay [2].
Taken in the same sequence, the figures for `Cc1ccccc1NC(=O)C1(N2C[C@@H](C(C)C)NC2=O)Cc2ccc(NC(=O)[C@@H](NC(=O)c3nonc3C)C(C3CC3)C3CC3)cc2C1` (stereo partly drawn) [Example 261, N-((2S)-1,1-dicyclopropyl-3-((2-((R)-4-isopropyl-2-oxoimidazolidin-1-yl)-2-(o-tolylcarbamoyl)-2,3-dihydro-1H-inden-5-yl)amino)-3-oxopropan-2-yl)-4-methyl-1,2,5-oxadiazole-3-carboxamide] were 143 nM and 58 nM.
In the same order, the values of `Cc1ccccc1NC(=O)C1(N2C[C@@H](C(C)C)NC2=O)Cc2ccc(NC(=O)[C@@H](NC(=O)c3nonc3C)C3CCC(F)(F)CC3)cc2C1` (stereo partly drawn) [Example 253, N-((1S)-1-(4,4-difluorocyclohexyl)-2-((2-((R)-4-isopropyl-2-oxoimidazolidin-1-yl)-2-(o-tolylcarbamoyl)-2,3-dihydro-1H-inden-5-yl)amino)-2-oxoethyl)-4-methyl-1,2,5-oxadiazole-3-carboxamide] are 331 nM and 355 nM.
In the same order, the values of `CNC(=O)C1(N2CC(C3CCC3)NC2=O)Cc2ccc(NC(=O)[C@@H](NC(=O)c3ccnn3C)C3CCCCC3)cc2C1` (stereo partly drawn) [Example 27, N-((1S)-2-((2-(4-cyclobutyl-2-oxoimidazolidin-1-yl)-2-(methylcarbamoyl)-2,3-dihydro-1H-inden-5-yl)amino)-1-cyclohexyl-2-oxoethyl)-1-methyl-1H-pyrazole-5-carboxamide] are 982 nM and 160 nM.
In the case of `Cc1nonc1C(=O)N[C@H](C(=O)Nc1ccc2c(c1)CC(C(=O)Nc1cccc(F)c1)(N1C[C@@H](C(C)C)NC1=O)C2)C1CCC(F)(F)CC1` (stereo partly drawn) [Example 243, N-((1S)-1-(4,4-difluorocyclohexyl)-2-((2-((3-fluorophenyl)carbamoyl)-2-((R)-4-isopropyl-2-oxoimidazolidin-1-yl)-2,3-dihydro-1H-inden-5-yl)amino)-2-oxoethyl)-4-methyl-1,2,5-oxadiazole-3-carboxamide], the IC50 in assay [1] turned out to be 317 nM; in assay [2], 290 nM.
In the same order, the values of `CC1CN(Cc2cc3cc(NC(=O)[C@@H](NC(=O)c4ccnn4C)C4CCCCC4)ccc3o2)C(=O)N1` (stereo partly drawn) [Example 11, N-((1S)-1-cyclohexyl-2-((2-((4-methyl-2-oxoimidazolidin-1-yl)methyl)benzofuran-5-yl)amino)-2-oxoethyl)-1-methyl-1H-pyrazole-5-carboxamide] are 6520 nM and 1700 nM.
In the same order, the values of `Cc1cccc(NC(=O)C2(N3CC4(CC4)CNC3=O)Cc3ccc(NC(=O)[C@@H](NC(=O)c4nonc4C)C4CCC(F)(F)CC4)cc3C2)c1` (stereo partly drawn) [Example 229, N-((1S)-1-(4,4-difluorocyclohexyl)-2-oxo-2-((2-(6-oxo-5,7-diazaspiro[2.5]octan-5-yl)-2-(m-tolylcarbamoyl)-2,3-dihydro-1H-inden-5-yl)amino)ethyl)-4-methyl-1,2,5-oxadiazole-3-carboxamide] are 85.1 nM and 28.6 nM.
In the case of `Cc1nonc1C(=O)N[C@H](C(=O)Nc1ccc2c(c1)OC(C(C)N1C[C@@H](C(F)(F)F)NC1=O)C2)C(C1CC1)C1CC1` (stereo partly drawn) [Example 276, N-((2S)-1,1-dicyclopropyl-3-oxo-3-((2-(1-((S)-2-oxo-4-(trifluoromethyl)imidazolidin-1-yl)ethyl)-2,3-dihydrobenzofuran-6-yl)amino)propan-2-yl)-4-methyl-1,2,5-oxadiazole-3-carboxamide], the IC50 in assay [1] turned out to be 1460 nM; in assay [2], 573 nM.
